# Experimental data: patent publication US9408859B2, “Pharmaceutical compositions useful for preventing and treating cancer” (Mitotech SA, priority 2007, dated 2016)
# Where “and” joins values, the source holds several entries; their conditions need not be identical. Equal values may be shown once.
# Assays:
# [1] = system: human rhabdomyosarcoma cell line (RD); test: Apoptosis in RD cells (Hoechst staining, propidium iodide flow cytometry); type: cell-based; settings: 20 nM SkQ1 for 24 hours; flow cytometry
# Protocol: To determine the viability of the cells, chromatine condensation and fragmentation was analyzed in similarly-treated cells (20 nM SkQ or 1 mM NAC or 100 mM Trolox for 24 hours and 1 μm FCCP one hour before SkQ1 where indicated) after staining with Hoechst 3342 (GenScript, Cat. No. L00309, performed according to manufacture manual http://www.genscript.com/tech_guide/TM0361.pdf). The cells were then examined using an Axiovert fluorescent microscope equipped with objectives 20× (dry) and 100× (oil immersion Neofluar) (Carl Zeiss).
# Further evidence of apoptosis was obtained by analysis of DNA content in the cellular population using flow cytometry. Cells were incubated with 0.05% ethanol was added (control) or with 20 nM SkQ1 for 24 hours, and then fixed and stained with propidium iodide (5 μM). They were then analyzed by flow cytometry using a FC-500 FACS (Beckman Coulter, Inc., Brea, Calif.).
# Lung Lewis's carcinoma = test: SkQ1 combined with doxorubicin on growth of lung Lewis's carcinoma; type: in vivo, mouse; settings: regime per group
# Protocol: For development of oncological diseases joint therapy that combines SkQ1 and chemotherapy, a study on SkQ1 influence on single doxorubicin injection efficiency was performed (one of the mechanisms of the preparation is activation of oxidative processes in normal and cancerous cells). SkQ1 was introduced before, simultaneously, or after introduction of doxorubicin in maximum dose of 500 nM/kg (in order to block oxidative mechanism of doxorubicin influence).
# Doxorubicin was applied before, after, and during the course of SkQ1.
# Ehrlich's carcinoma = test: Anti-tumoral effect on hypodermic Ehrlich's carcinoma; type: in vivo, mouse; settings: 0.5 nM/kg ip
# Protocol: The experiment was performed according to the methods described in Example 2.
# Injection of the preparation started 48 hours after transplantation and proceeded during 5, 10, 15, and 30 days. For tumor treatment efficiency, estimations of tumor volumes were evaluated many times after end of short courses or once after end of the 30-day course. […] The results were then statistically calculated using confidence intervals of mean values of compared values, difference stated reliable if p<0.05.
# [2] = system: A-431 human skin cancer heteroxenografts; test: Anti-tumoral activity on A-431 heteroxenografts (tumor volume, T/C, histology); type: in vivo, mouse
# Protocol: Before administration, SkQ1 was diluted with sterile physiological saline up to 0.5 μM and 5.0 μM. The preparation was injected intraperitoneally as single doses of 5.0 nM/kg and 50.0 nM/kg, 0.2 ml/mouse.
# (1973) 51:1417-1423. • Morphology: epithelial. • Cultivation method: monolayer. • Cultivation conditions: 10% bovine embryonal serum DMEM culture. • Procedure of seeding: cell removal using 0.25% trypsin, 0.02% versene (3:7), ratio of seeding 1:3 1:6, optimal density 2.04.0×10^4 cell per sm^2 cryopreservation media, 10% DMSO, 1.0×10^6 cells/ml per ampoule. • Viability after cryopreservation: 83% (trypan blue staining on zero passage) • Contamination control: no bacteria, fungi or micoplasma detected • Genetic identity control: karyological, enzymatic (LDH, G6PDH) analysis. • Karyology: 2n-46, chromosome variability limit 5777, chromosome modal number 6871 • Tumorigenicity: tumorigenic in HIV mice and in mice treated with antithymocyte serum. • Other features: large number of receptors to epidermal growth factor. • Application area: growth factors study, cell biology. • Collection: ATCC CRL 1555; ECACC 85090402; INC RAS.
# A-431 cells were grown on RPMI-1640 medium that contained 10% calf serum and 1 mM glutamine. Cells were transferred to a flask at a ratio of 1:2 or 1:3 from full monolayer. The medium was changed every 2 to 3 days. A cultivated cell suspension was then used to engraft HIV mice.
# The experiment was performed using HIV female mice Balb/c nude at the age 8 to 9.5 weeks. All mice were raised in GU RONC. Mice were managed in specialized virus-free chamber with sterile aeration, fed with sterile briquette food and water under normalized temperature condition and moisture.
# Cells of A-431 cell line were hypodermically implanted only once in number 1.7-1×10^6 per mouse in 0.2 ml of RPMI-1640 nutrition medium.
# Anti-tumoral effect estimation was carried out using common rate T/C (Treatment/Control), evaluated as a ratio of average tumor volumes in treated and control groups given in percents. Rate was taken evaluated using the following formula T/C %=[…],
# where Vo and Vk are the mean volumes of tumor in treated and control groups thereof. Thus, in the control group, T/C=100%. Mean volume was evaluated using the following formula: Vm (mm^3)=axbxc. T/C≦42% was taken as a minimal efficiency criterion (Anticancer Drug Development Guide (1997) (ed. B. A. Teicher) Humana Press, Totowa, N.J., pp. 101-125). To analyze the speed of growth (standarcy value), a ratio of mean tumor relative to the first one taken was determined as follows.
# Evaluation started after the appearance of a palpable tumor (9 days after implantation). After that multiple tumor volume evaluations were performed until the 20th day after transplantation. The first evaluation of treated groups was performed during treatment, and the next three evaluations were performed during 6 days after end of the treatment. Tumor evaluations were stopped on the 21st to the 24th day after the first mouse died in three experiments.
# Mice were sacrificed by ether anesthesia overdose. An autopsy was performed, and tumors were then extracted and assayed histologically and immunohistochemically. Tumors were fixed in 10% formaldehyde and set into paraffin wax. Histological assays were carried out on tumor histological sections, stained with hematoxylin and eosin. The number of microvessels was examined by standard immunological method using antibodies to CD34 antigen. Presence of vessel mimicry was estimated by tumor section staining with Schiffs reagent.
# [3] = Experiment 1 material, Group 2, 5.0 nM/kg
compound,measurement,setting,value
CC1=C(C)C(=O)C(CCCCCCCCCC[P+](c2ccccc2)(c2ccccc2)c2ccccc2)=CC1=O [SkQ1],"sub-G1 peak (DNA content, propidium iodide)",[1],accumulation of apoptotic bodies
same,"TGS %, by tumor volume","Lung Lewis's carcinoma; Day 7, SkQ 500 nmol 0.2 ml/mouse per os x5, DOX 7 mg/kg ip",33%
same,"TGS %, by tumor volume","Lung Lewis's carcinoma; Day 7, SkQ 500 nmol 0.2 ml/mouse per os x5, DOX 7 mg/kg ip, listed as SkQ",33^ %
same,"TGS %, by tumor volume",Lung Lewis's carcinoma; Day 10,42%
same,"TGS %, by tumor volume",Lung Lewis's carcinoma; Day 14,48%
same,"TGS %, by tumor volume",Lung Lewis's carcinoma; Day 17,28%
same,"TGS %, by tumor volume",Lung Lewis's carcinoma; Day 21,30%
same,tumor volume,"Ehrlich's carcinoma; 5-day course, days 2-7, day 7 after transplantation",251 mm³
same,TGS%,"Ehrlich's carcinoma; 5-day course, day 7",40%
same,TGS%,"Ehrlich's carcinoma; 5-day course, day 14",23%
same,tumor volume,"Ehrlich's carcinoma; 5-day course, day 14",547 mm³
same,TGS%,"Ehrlich's carcinoma; 5-day course, day 21",16%
same,tumor volume,"Ehrlich's carcinoma; 5-day course, day 21",1000 mm³
same,tumor volume,"Ehrlich's carcinoma; 10-day course, days 2-13, day 7",228 mm³
same,TGS%,"Ehrlich's carcinoma; 10-day course, day 7",45%
same,TGS%,"Ehrlich's carcinoma; 10-day course, day 14",34%
same,tumor volume,"Ehrlich's carcinoma; 10-day course, day 14",474 mm³
same,TGS%,"Ehrlich's carcinoma; 10-day course, day 21",28%
same,tumor volume,"Ehrlich's carcinoma; 10-day course, day 21",853 mm³
same,tumor volume,"Ehrlich's carcinoma; 15-day course, days 2-16, day 7",259 mm³
same,TGS%,"Ehrlich's carcinoma; 15-day course, day 7",38%
same,TGS%,"Ehrlich's carcinoma; 15-day course, day 14",36%
same,tumor volume,"Ehrlich's carcinoma; 15-day course, day 14",459 mm³
same,TGS%,"Ehrlich's carcinoma; 15-day course, day 21",29%
same,tumor volume,"Ehrlich's carcinoma; 15-day course, day 21",838 mm³
same,T/C,"[2]; Experiment 1, 5.0 nM/kg ip daily day 1-14, 14th day",74%
same,T/C,"[2]; Experiment 1, 5.0 nM/kg ip daily day 1-14, 17th day",67%
same,T/C,"[2]; Experiment 1, 5.0 nM/kg ip daily day 1-14, 20th day",73%
same,T/C,"[2]; Experiment 1, 5.0 nM/kg ip daily, 9th day (after 8 injections)",63%
same,T/C,"[2]; Experiment 1, 50.0 nM/kg ip daily day 1-14, 9th day",159%
same,T/C,"[2]; Experiment 1, 50.0 nM/kg ip daily day 1-14, 14th day",160%
same,T/C,"[2]; Experiment 1, 50.0 nM/kg ip daily day 1-14, 17th day",134%
same,T/C,"[2]; Experiment 1, 50.0 nM/kg ip daily day 1-14, 20th day",146%
same,Tumor differentiation (histological assay),"[2]; Experiment 1 material, 5.0 nM/kg, vs control",partial tumor differentiation
same,"Number of microvessels in tumors (CD34, hot spots)","[2]; Experiment 1 material, 23rd day, 9th day after end of treatment, three groups (control, 5.0 and 50.0 nM/kg)",did not statistically differ
same,Microvessel diameter,[2]; [3],smaller diameter than in the control group
same,Signs of vasculogenic mimicry (PAS staining),[2]; [3],no such signs were seen
same,T/C,"[2]; Experiment 2, 5.0 nM/kg ip daily day 1-8, 8th day",61%
same,T/C,"[2]; Experiment 2, 5.0 nM/kg ip daily day 1-8, 14th day",72%
same,T/C,"[2]; Experiment 2, 5.0 nM/kg ip daily day 1-8, 17th day",96%
same,T/C,"[2]; Experiment 2, 5.0 nM/kg ip daily day 1-8, 24th day",101%
same,T/C,"[2]; Experiment 3, 5.0 nM/kg ip daily day 1-14, immediately after the end of the treatment",41% and 42%
same,inhibition of growth,"[2]; long-termed injection, single doses 5.0 nM/kg, in some cases",50%
